Test results published in US3932619A, “Metabolite A-27106 and processes for its preparation and use” (Eli Lilly and Company, priority 1974, dated 1976).
Structures can show the parent of a compound that is named as a salt.

Key:
mice = assay: Acute intraperitoneal toxicity in groups of six mice; format: in vivo; conditions: for mice died: six mice
Procedure: In tests when metabolite A-27106 sodium salt was administered intraperitoneally to groups of six mice each:
In similar tests, when monensin sodium salt was administered intraperitoneally to groups of six mice each: […]

[1] = Electrometric titration (pKa); format: physicochemical; conditions: pH 8; electrometric titration in water, initial pH of 8
Text: The acid form of metabolite A-27106 is a white amorphous solid, having a molecular weight of about 832.

Eimeria tenella = assay: Control of coccidiosis in chicks inoculated with Eimeria tenella, drug in feed; format: in vivo; conditions: for Avg. Wt. Gain/Bird: 7 days after inoculation; for Lesion Scores: number of birds at score 0 / Lesion Scores: number of birds at score 1 / Lesion Scores: number of birds at score 2 / Lesion Scores: number of birds at score 3 / Lesion Scores: number of birds at score 4: of 15 birds
Procedure: A group of 75 one-week-old, healthy, incubator and battery-reared, cross-bred male chicks, of a heavy broiler type was used. The birds were divided into five groups of 15 birds having three replicates of five-bird subgroups each. Each subgroup was reared out of contact with the other subgroups. A first group was held as an untreated healthy control under favorable conditions. A second group was treated as the first group, but was inoculated with coccidiosis by oral administration of a dose containing 10^5 sporulated oocysts of Eimeria tenella. The third, fourth and fifth groups were treated as the second group except that, 24 hours before the said inoculation, their feed was modified by addition of metabolite A-27106 sodium salt in concentrations of 100, 150, and 200 parts per million (ppm), respectively.
Seven days after inoculation, the birds were weighed, sacrificed and examined for evidence of coccidial lesions. Coccidial involvement was expressed on an arbitrary scale of zero to four. Lesion scores indicate the number of birds at each level. Zero indicates no evidence of coccidiosis. One designates the least coccidial involvement that can be seen. Two indicates moderate involvement with little or no hemorrhage and no severe tissue damage. Three indicates hemorrhage, swelling of the caeca, and extensive tissue involvement. Four indicates hemorrhage, a caecal core of clotted blood and debrided epithelial cells. Birds scoring […] or less usually recover if not further infected with coccidia.

rumen fluid = assay: Volatile fatty acid production in incubated diluted rumen fluid; parameters: species or system steer; conditions: 16 hours, 38°C.
Text: Rumen fluid is obtained from a steer with a surgically-installed fistula opening into the rumen. The steer is maintained on a high-grain ration, the composition of which follows:
A sample of rumen fluid is strained through four layers of cheesecloth, and the filtrate is collected. The particulate matter retained by the cheesecloth is resuspended in enough physiological buffer to return it to the original volume of the rumen fluid, and this suspension is strained again. The buffer used has the following composition:
The two filtrates are combined and allowed to stand until particulate matter separates to the top. The clear layer is separated, diluted with the same buffer (1:1) and then adjusted to pH 7.0.
The diluted rumen fluid (10 ml.) is placed in a 25-ml. flask with 40 mg. of the above-described feed, an additional 5 mg. of soybean protein, and the compound to be tested. Four replicate flasks are used per treatment. Two sets of four control flasks each are also employed. A zero-time control and an incubated 16-hour control are used. All test flasks are incubated for 16 hours at 38°C. After incubation the pH is measured, and 25 percent metaphosphoric acid (2 ml.) is added to each flask. The samples are allowed to settle, and the supernatant is analyzed by gas chromatography for propionate, acetate, and butyrate compounds.
Test-compound results are statistically compared with the control results.

[2] = Solubility in organic solvents; format: physicochemical
birds = assay: Other studies: palatability and toxicity in birds; format: in vivo
coccidiosis = assay: Other studies with A-27106 sodium salt alone and combined with monensin in the diet; format: in vivo, birds
Procedure: Numerous other studies were carried out with metabolite A-27106 sodium salt, both alone and in combination with monensin.

[3] = medicated birds with high lesion scores
[4] = 0.2 mcg./ml. diluted rumen fluid

For `CCC1(C2OC(C3OC(O)(COC4OC(CO)C(O)C(O)C4O)C(C)CC3C)CC2C)CCC(C2(C)CCC3(CC(O)C(C)C(C(C)C(OC)C(C)C(=O)O)O3)O2)O1` (stereo not drawn) [Metabolite A-27106], the “toxicity compared with monensin” value (mice; mice) was “less toxic than monensin” and the pKa [1] was 7.2.
In the case of `CCC1(C2OC(C3OC(O)(COC4OC(CO)C(O)C(O)C4O)C(C)CC3C)CC2C)CCC(C2(C)CCC3(CC(O)C(C)C(C(C)C(OC)C(C)C(=O)O)O3)O2)O1` (stereo not drawn) [metabolite A-27106 sodium salt], the mice died (mice; 50 mg./kg.) is reported as “one out of six died”, the mice died (mice; 100 mg./kg.) is reported as “three out of six died” and the “Avg. Wt. Gain/Bird” value (Eimeria tenella; 100 ppm in the diet) is reported as 157 Grams. For the same compound, the “Lesion Scores: number of birds at score 0” value (“Lesion Scores … at score 0” below) (Eimeria tenella; 100 ppm in the diet) was 4, the “Lesion Scores: number of birds at score 1” value (“Lesion Scores … at score 1” below) (Eimeria tenella; 100 ppm in the diet) was 1 and the “Lesion Scores: number of birds at score 2” value (“Lesion Scores … at score 2” below) (Eimeria tenella; 100 ppm in the diet) was 0. The “Lesion Scores: number of birds at score 3” value (“Lesion Scores … at score 3” below) (Eimeria tenella; 100 ppm in the diet) was 3, the “Lesion Scores: number of birds at score 4” value (“Lesion Scores … at score 4” below) (Eimeria tenella; 100 ppm in the diet) was 7 and the “Avg. Wt. Gain/Bird” value (Eimeria tenella; 150 ppm in the diet) was 150 Grams. For the same compound, the “Lesion Scores … at score 0” value (Eimeria tenella; 150 ppm in the diet) was 3, the “Lesion Scores … at score 1” value (Eimeria tenella; 150 ppm in the diet) was 3 and the “Lesion Scores … at score 2” value (Eimeria tenella; 150 ppm in the diet) was 1. The “Lesion Scores … at score 3” value (Eimeria tenella; 150 ppm in the diet) was 1, the “Lesion Scores … at score 4” value (Eimeria tenella; 150 ppm in the diet) was 7 and the “Avg. Wt. Gain/Bird” value (Eimeria tenella; 200 ppm in the diet) was 166 Grams. For the same compound, the “Lesion Scores … at score 0” value (Eimeria tenella; 200 ppm in the diet) was 5, the “Lesion Scores … at score 1” value (Eimeria tenella; 200 ppm in the diet) was 0 and the “Lesion Scores … at score 2” value (Eimeria tenella; 200 ppm in the diet) was 0. For the same compound, the “Lesion Scores … at score 3” value (Eimeria tenella; 200 ppm in the diet) was 0, the “Lesion Scores … at score 4” value (Eimeria tenella; 200 ppm in the diet) was 10 and the condition of birds (Eimeria tenella; [3]) was “appeared to be in good condition”. For the same compound, the fecal blood (Eimeria tenella; [3]) was “scanty or absent”, the “Butyrate, ratio of concentration in treated to control flasks” value (“Butyrate, ratio of concentration” below) (rumen fluid; [4]) was 0.91 and the “Propionate, ratio of concentration in treated to control flasks” value (from here on “Propionate, ratio of concentration”) (rumen fluid; [4]) was 1.02. The “Total VFA, ratio of concentration in treated to control flasks” value (“Total VFA, ratio of concentration” for short) (rumen fluid; [4]) was 1.07, the “Butyrate, ratio of concentration” value (rumen fluid; 1 mcg./ml. diluted rumen fluid) was 0.96 and the “Propionate, ratio of concentration” value (rumen fluid; 1 mcg./ml. diluted rumen fluid) was 1.42. For the same compound, the “Total VFA, ratio of concentration” value (rumen fluid; 1 mcg./ml. diluted rumen fluid) was 0.98, the “Butyrate, ratio of concentration” value (rumen fluid; 5 mcg./ml. diluted rumen fluid) was 0.73 and the “Propionate, ratio of concentration” value (rumen fluid; 5 mcg./ml. diluted rumen fluid) was 2.15. For the same compound, the “Total VFA, ratio of concentration” value (rumen fluid; 5 mcg./ml. diluted rumen fluid) was 1.03, the solubility ([2]; highly polar solvents) was “readily soluble” and the solubility ([2]; liquid lower alkanes) was “relatively insoluble”. The solubility ([2]; lower aliphatic alcohols) was “soluble”, the solubility ([2]; nonpolar solvents) was “insoluble” and the solubility ([2]; phenol, diethyl ether and acetone) was “partially soluble”. For the same compound, the solubility ([2]; solvents of intermediate polarity) was “varies in solubility”, the “toxicity compared with monensin” value (birds) was “less toxic than was monensin” and the weight gains (coccidiosis; 0.04 percent versus 0.01 percent in diet) was “no greater weight gains at 0.04 percent than at 0.01%”. The toxicity (coccidiosis; higher rate (0.04 percent)) was “no evidence of toxicity” and the caecal lesions (coccidiosis; higher rate (0.04 percent) versus 0.01 percent) was “fewer caecal lesions”.
In the case of `CC[C@@]1([C@@H]2O[C@@H]([C@H]3O[C@@](O)(CO)[C@H](C)C[C@@H]3C)C[C@@H]2C)CC[C@H]([C@]2(C)CC[C@]3(C[C@H](O)[C@@H](C)[C@@H]([C@@H](C)[C@@H](OC)[C@H](C)C(=O)O)O3)O2)O1` [monensin sodium salt, reference compound], the mice died (mice; 10 mg./kg.) is reported as “one out of six died” and the mice died (mice; 20 mg./kg.) is reported as “three out of six died”.
